Source: patent US11382328B2, “Rapid drug discovery methods for pathogen inactivation” (priority 2019, dated 2022)
Where a name gives a salt, the structure may show the parent alone.

System: E. coli strain W3110
Test: Synergy assays: Biolog chemical sensitivity panels with Group IB metal, coefficient of drug interaction (CDI) from relative growth
Type: cell-based
Conditions: for CDI (coefficient of drug interaction), gold + biocide: Gold (μM); for CDI (coefficient of drug interaction), copper mixed with biocide: Copper (mM) section
[1] = Silver 0.5 μM, biocide concentration 3 of 4
[2] = Silver 0.5 μM, biocide concentration 4 of 4
[3] = Silver 1.0 μM, biocide concentration 3 of 4
[4] = Silver 1.0 μM, biocide concentration 4 of 4
[5] = Silver 5.0 μM, biocide concentration 3 of 4
[6] = Silver 5.0 μM, biocide concentration 4 of 4
[7] = 1st of 3 copper concentrations (value not shown), 3rd of four biocide concentrations
[8] = 1st of 3 copper concentrations (value not shown), 4th of four biocide concentrations
[9] = 2nd of 3 copper concentrations (value not shown), 3rd of four biocide concentrations
[10] = 2nd of 3 copper concentrations (value not shown), 4th of four biocide concentrations
[11] = 3rd of 3 copper concentrations (value not shown), 3rd of four biocide concentrations
[12] = 3rd of 3 copper concentrations (value not shown), 4th of four biocide concentrations
[13] = Gold section of Table 5, first of three gold concentrations (μM, value not given), biocide concentration 4 of 4
[14] = Gold section of Table 5, second of three gold concentrations (μM, value not given), biocide concentration 4 of 4
[15] = Gold section of Table 5, third of three gold concentrations (μM, value not given), biocide concentration 4 of 4
[16] = Silver 0.5 μM, 4th of four biocide concentrations, E. coli
[17] = Silver 1.0 μM, 4th of four biocide concentrations, E. coli

## NCC(=O)NO [glycine hydroxamate]
Copper (mM), 1st of 3 copper concentrations (head line not shown), biocide concentration 1 of 4, E. coli
  CDI (coefficient of drug interaction): 1.36
Copper (mM), 1st of 3 copper concentrations (head line not shown), biocide concentration 2 of 4, E. coli
  CDI (coefficient of drug interaction): Tox
Copper (mM), 1st of 3 copper concentrations (head line not shown), biocide concentration 3 of 4, E. coli
  CDI (coefficient of drug interaction): Tox
Copper (mM), 1st of 3 copper concentrations (head line not shown), biocide concentration 4 of 4, E. coli
  CDI (coefficient of drug interaction): Tox
Copper (mM), 2nd of 3 copper concentrations (head line not shown), biocide concentration 1 of 4, E. coli
  CDI (coefficient of drug interaction): 1.06
Copper (mM), 2nd of 3 copper concentrations (head line not shown), biocide concentration 2 of 4, E. coli
  CDI (coefficient of drug interaction): 0.47
Copper (mM), 2nd of 3 copper concentrations (head line not shown), biocide concentration 3 of 4, E. coli
  CDI (coefficient of drug interaction): Tox
Copper (mM), 2nd of 3 copper concentrations (head line not shown), biocide concentration 4 of 4, E. coli
  CDI (coefficient of drug interaction): Tox
Copper (mM), 3rd of 3 copper concentrations (head line not shown), biocide concentration 1 of 4, E. coli
  CDI (coefficient of drug interaction): 1.73
Copper (mM), 3rd of 3 copper concentrations (head line not shown), biocide concentration 2 of 4, E. coli
  CDI (coefficient of drug interaction): Tox
Copper (mM), 3rd of 3 copper concentrations (head line not shown), biocide concentration 3 of 4, E. coli
  CDI (coefficient of drug interaction): Tox
Copper (mM), 3rd of 3 copper concentrations (head line not shown), biocide concentration 4 of 4, E. coli
  CDI (coefficient of drug interaction): Tox
First of 3 gold concentrations, biocide concentration 1 of 4
  CDI (coefficient of drug interaction), gold + biocide: 1.08
First of 3 gold concentrations, biocide concentration 2 of 4
  CDI (coefficient of drug interaction), gold + biocide: 0.95
First of 3 gold concentrations, biocide concentration 3 of 4
  CDI (coefficient of drug interaction), gold + biocide: 1.13
First of 3 gold concentrations, biocide concentration 4 of 4
  CDI (coefficient of drug interaction), gold + biocide: 1.01
Second of 3 gold concentrations, biocide concentration 1 of 4
  CDI (coefficient of drug interaction), gold + biocide: 1.07
Second of 3 gold concentrations, biocide concentration 2 of 4
  CDI (coefficient of drug interaction), gold + biocide: 1.11
Second of 3 gold concentrations, biocide concentration 3 of 4
  CDI (coefficient of drug interaction), gold + biocide: 1.19
Third of 3 gold concentrations, biocide concentration 1 of 4
  CDI (coefficient of drug interaction), gold + biocide: 1.00
Third of 3 gold concentrations, biocide concentration 2 of 4
  CDI (coefficient of drug interaction), gold + biocide: 1.07
Third of 3 gold concentrations, biocide concentration 3 of 4
  CDI (coefficient of drug interaction), gold + biocide: 1.39
Third of 3 gold concentrations, biocide concentration 4 of 4
  CDI (coefficient of drug interaction), gold + biocide: 1.22
Silver 0.5 μM, biocide concentration 1 of 4
  CDI: 0.74
Silver 0.5 μM, biocide concentration 2 of 4
  CDI: 0.72
[1]
  CDI: 0.79
[2]
  CDI: 0.76
Silver 1.0 μM, biocide concentration 1 of 4
  CDI: 0.95
Silver 1.0 μM, biocide concentration 2 of 4
  CDI: 0.99
[3]
  CDI: 0.95
[4]
  CDI: 1.07
Silver 5.0 μM, biocide concentration 1 of 4
  CDI: 1.00
Silver 5.0 μM, biocide concentration 2 of 4
  CDI: 0.95
[5]
  CDI: 1.09
[6]
  CDI: 0.88

## Nc1n[nH]c(N)n1 [guanazole]
[7]
  CDI (coefficient of drug interaction), copper mixed with biocide: Tox
[8]
  CDI (coefficient of drug interaction), copper mixed with biocide: Tox
[9]
  CDI (coefficient of drug interaction), copper mixed with biocide: Tox
[10]
  CDI (coefficient of drug interaction), copper mixed with biocide: Tox
[11]
  CDI (coefficient of drug interaction), copper mixed with biocide: Tox
[12]
  CDI (coefficient of drug interaction), copper mixed with biocide: Tox
Gold section of Table 5, first of three gold concentrations (μM, value not given), biocide concentration 3 of 4
  CDI (coefficient of drug interaction): Tox
[13]
  CDI (coefficient of drug interaction): Tox
Gold section of Table 5, second of three gold concentrations (μM, value not given), biocide concentration 3 of 4
  CDI (coefficient of drug interaction): Tox
[14]
  CDI (coefficient of drug interaction): Tox
Gold section of Table 5, third of three gold concentrations (μM, value not given), biocide concentration 3 of 4
  CDI (coefficient of drug interaction): Tox
[15]
  CDI (coefficient of drug interaction): Tox
[1]
  CDI: Tox
[2]
  CDI: Tox
[3]
  CDI: Tox
[4]
  CDI: Tox
[5]
  CDI: Tox
[6]
  CDI: Tox

## N=C(N)N [guanidine hydrochloride]
[8]
  CDI (coefficient of drug interaction), copper mixed with biocide: Tox
[10]
  CDI (coefficient of drug interaction), copper mixed with biocide: Tox
[12]
  CDI (coefficient of drug interaction), copper mixed with biocide: Tox
[13]
  CDI (coefficient of drug interaction): Tox
[14]
  CDI (coefficient of drug interaction): Tox
[15]
  CDI (coefficient of drug interaction): Tox
[16]
  CDI (coefficient of drug interaction), silver + biocide: Tox
[17]
  CDI (coefficient of drug interaction), silver + biocide: Tox
Silver 5.0 μM, 4th of four biocide concentrations, E. coli
  CDI (coefficient of drug interaction), silver + biocide: Tox

## N.N.N.N.N.N.[Cl-].[Cl-].[Cl-].[Co+3] [hexammine cobalt (III) chloride]
1st of 3 copper concentrations (value not shown), 1st of four biocide concentrations
  CDI (coefficient of drug interaction), copper mixed with biocide: 1.06
[7]
  CDI (coefficient of drug interaction), copper mixed with biocide: 1.19
[8]
  CDI (coefficient of drug interaction), copper mixed with biocide: 1.51
2nd of 3 copper concentrations (value not shown), 1st of four biocide concentrations
  CDI (coefficient of drug interaction), copper mixed with biocide: 0.93
2nd of 3 copper concentrations (value not shown), 2nd of four biocide concentrations
  CDI (coefficient of drug interaction), copper mixed with biocide: 1.05
[9]
  CDI (coefficient of drug interaction), copper mixed with biocide: 1.05
[10]
  CDI (coefficient of drug interaction), copper mixed with biocide: 1.59
3rd of 3 copper concentrations (value not shown), 1st of four biocide concentrations
  CDI (coefficient of drug interaction), copper mixed with biocide: 0.94
3rd of 3 copper concentrations (value not shown), 2nd of four biocide concentrations
  CDI (coefficient of drug interaction), copper mixed with biocide: 0.90
[11]
  CDI (coefficient of drug interaction), copper mixed with biocide: 0.73
[12]
  CDI (coefficient of drug interaction), copper mixed with biocide: 0.87
Gold 5 μM, biocide concentration 1 of 4, E. coli
  CDI (coefficient of drug interaction): 1.09
Gold 5 μM, biocide concentration 4 of 4, E. coli
  CDI (coefficient of drug interaction): 1.10
Gold 25 μM, biocide concentration 1 of 4, E. coli
  CDI (coefficient of drug interaction): 1.09
Gold 25 μM, biocide concentration 3 of 4, E. coli
  CDI (coefficient of drug interaction): 1.08
Gold 25 μM, biocide concentration 4 of 4, E. coli
  CDI (coefficient of drug interaction): 1.25
Silver 0.5 μM, 1st of four biocide concentrations, E. coli
  CDI (coefficient of drug interaction), silver + biocide: 0.98
Silver 0.5 μM, 2nd of four biocide concentrations, E. coli
  CDI (coefficient of drug interaction), silver + biocide: 1.05
Silver 0.5 μM, 3rd of four biocide concentrations, E. coli
  CDI (coefficient of drug interaction), silver + biocide: 0.97
[16]
  CDI (coefficient of drug interaction), silver + biocide: 0.82
Silver 1.0 μM, 1st of four biocide concentrations, E. coli
  CDI (coefficient of drug interaction), silver + biocide: 0.98
Silver 1.0 μM, 2nd of four biocide concentrations, E. coli
  CDI (coefficient of drug interaction), silver + biocide: 1.03
Silver 1.0 μM, 3rd of four biocide concentrations, E. coli
  CDI (coefficient of drug interaction), silver + biocide: 1.04
[17]
  CDI (coefficient of drug interaction), silver + biocide: 0.39
Silver 5.0 μM, 1st of four biocide concentrations, E. coli
  CDI (coefficient of drug interaction), silver + biocide: 1.26
Silver 5.0 μM, 2nd of four biocide concentrations, E. coli
  CDI (coefficient of drug interaction), silver + biocide: 1.43
Silver 5.0 μM, 3rd of four biocide concentrations, E. coli
  CDI (coefficient of drug interaction), silver + biocide: 1.00
[…], biocide concentration 3 of 4, E. coli
  CDI (coefficient of drug interaction): 1.25
[…], biocide concentration 4 of 4, E. coli
  CDI (coefficient of drug interaction): 1.62
